From patent US20100190237A1, “COMPOSITIONS AND METHODS FOR STORAGE OF BACTERIAL SUSPENSIONS” (priority 2007, published 2010)

Assays:
[1] = test system: P. leiognathi; assay: ToxScreen-II toxicity assay (bacterial luminescence) with stored bacterial suspension; assay type: cell-based; conditions: light level after 30 minutes at 27° C.
Experimental: In order to determine how long a bacterial suspension stored in a solution according to an exemplary embodiment of the invention could be useful in a toxicity assay, a toxicity assay (ToxScreen-II, CheckLight Ltd, Qiryat Tivon, Israel) was conducted repeatedly over time.
In the assay, 0.01 mL aliquots were drawn from the bacterial suspension (P. leiognathi) in the medium at 4 time points during 30 days and incubated with chemical toxicants in assay buffer diluted in mineral water. Light level was determined after 30 minutes at 27° C.

[2] = test system: luminescent bacteria (e.g. Photobacterium leiognathi, Vibrio fischeri, Vibrio harveyi); assay: titration of medium components: luminescence during long term storage at refrigeration temperatures; assay type: cell-based; conditions: for range I: concentrations that provided a marked improvement over negative control / range II: concentrations that produced no negative effect relative to negative control: based on results of examples 2 through 9; for effect of antibiotic on luminescence during long term storage: antibiotic at 15 mg/L in storage solution; for concentration that slowed the reduction in luminescence better than other tested concentrations: storage at -2 to +4° C. over several weeks, other components constant as in Table 1, pH 7.2
Experimental: In order to identify storage conditions suitable for a long term medium for a suspension of luminescent bacteria (e.g. Photobacterium leiognathi, Vibrio fischeri, Vibrio harveyi) different concentrations of monovalent salts, sugars, sources of divalent cations, protein mixtures, albumins and alcohols were tested.
Each of the medium components (including pH) was tested separately while all other components were kept at a constant concentration as indicated in Table 1. For titration of other components pH was held constant at 7.2. The effect on bacterial luminescence of each component at each tested concentration (or pH value) was determined over a period of several weeks.
In order to perform the titration of the medium components, a bacterial culture was spread on LA plates at about 300 colonies per plate after over night growth. Colonies were collected from plates with ASW and centrifuged (10000 g, 10 minutes, 4° C.). Harvested bacteria were resuspended in the different solutions to form experimental bacterial suspensions.
Experimental bacterial suspensions were stored at −2° C.-+4° C. Each week an aliquot of each experimental bacterial suspension was drawn and diluted in artificial seawater (ASW: 0.5M NaCl, 50 mM MgSO47H2O, 10 mM CaCl22H2O, 10 mM KCl)) supplemented with 50 ppm yeast extract/glucose and incubated at 26° C.-28° C. Light level was recorded after 30 minutes.

[3] = test system: E. coli harboring the luminescence system of V. fischeri; conditions: titration as in Example 6; data not shown
Experimental: In order to determine the effect of monovalent salts on luminescence during long term storage at refrigeration temperatures, NaCl was added to medium at concentrations of 0.1, 0.5, 2.0, 3.0 and 4.5%. […] Assay of the effect of NaCl was as described in Example 1.

Compound | Sensitivity of P. leiognathi to various toxicants ([1]; Day 1 of storage) [mg/L] | Sensitivity of P. leiognathi to various toxicants ([1]; Day 7 of storage) [mg/L] | Sensitivity of P. leiognathi to various toxicants ([1]; Day 18 of storage) [mg/L] | Sensitivity of P. leiognathi to various toxicants ([1]; Day 30 of storage) [mg/L] | range I: concentrations that provided a marked improvement over negative control [2] | range II: concentrations that produced no negative effect relative to negative control [2] | further results
[Cl][Cd][Cl] [CdCl2] | 0.2 | 0.25 | 0.3 | 0.4 |  |  | 
Clc1ccc(C(c2ccc(Cl)cc2)C(Cl)(Cl)Cl)cc1 [DDT] | 0.007 | 0.006 | 0.004 | 0.006 |  |  | 
[K+].[K+].[O]=[Cr](=[O])([O-])[O][Cr](=[O])(=[O])[O-] [K2Cr2O7] | 0.5 | 0.7 | 0.5 | 0.6 |  |  | 
[Cl-].[Na+] [NaCl] |  |  |  |  | 2.0-3.0% | 1.0-3.0% | salt concentration determined to be useful (preserving luminescence) [3]: 0.8-0.85%
[Cl][Pb][Cl] [PbCl2] | 2 | 2.5 | 3 | 2.5 |  |  | 
CC1(C)S[C@@H]2[C@H](NC(=O)[C@H](N)c3ccccc3)C(=O)N2[C@H]1C(=O)O [ampicillin] |  |  |  |  |  |  | effect of antibiotic on luminescence during long term storage [2]: slowed the reduction in luminescence better than other tested antibiotics
O=C(N[C@H](CO)[C@H](O)c1ccc([N+](=O)[O-])cc1)C(Cl)Cl [chloramphenicol] |  |  |  |  |  |  | effect of antibiotic on luminescence during long term storage [2]: slowed the reduction in luminescence better than other tested antibiotics
CCO [ethanol] |  |  |  |  | 1.0-3.5% | 0.1-3.5% | concentration that slowed the reduction in luminescence better than other tested concentrations [2]: ≥ 1.5%
O[C@H]1[C@H](O)[C@@H](O)[C@H](O)[C@@H](O)[C@H]1O [inositol] |  |  |  |  | 5.0-7.0% | 0.5-7.0% | concentration that slowed the reduction in luminescence better than other tested concentrations [2]: 5%
[Cl-].[Cl-].[Mg+2] [magnesium, MgCl2] |  |  |  |  | 1.0 to 200 mM | 0.0 to 300 mM | concentration that slowed the reduction in luminescence better than other tested concentrations [2]: 200 mM
Bovine serum albumin [BSA] |  |  |  |  |  | 0.02-1.0% | 
